The results in this text go back to patent US20200297798A1, “KEY AMINO ACID SITES […] EXPORT OF NUC[…] INFLUENZA A AND B VIRUSES AND USE THEREOF AS ANTI-INFLUENZA VIRUS DRUG TARGETS” (INSTITUTE OF MICROBIOLOGY, CHINESE ACADEMY OF SCIENCES, priority 2017, published 2020).

The target in test [1] is ANP Y148F (Influenza A virus, UniProt P15682, Y148F).
Test [2] concerns the target BNP F209A (Influenza B virus, UniProt P04665, F209A).

Consider `COc1ccc2cc(C(C)C(=O)O)ccc2c1` (stereo not drawn) [naproxen, (+) α-methyl-6-methoxy-2-naphthaleneacetic acid], for which, in test [1], the “n (stoichiometry)” value came out at 0.10, the ΔH is -10.92 kcal/mol and the ΔS is given as −83.45 J/mol · K. For the same compound, in test [2], the “n (stoichiometry)” value came out at 1.68, the ΔH was -0.167 kcal/mol and the ΔS is listed as 102.6 J/mol · K.
